Source: US20250049929A1, “NOVEL TETRAHYDROQUINOLINES AND PROTEOLYSIS TARGETING CHIMERA (PROTACS) COMPRISING THEM AS DEGRADERS OF SMARCA” (Boehringer Ingelheim International GmbH, priority 2021, published 2025)

Tests used:
SMARCA4 = molecular target: T1, SMARCA4 (Homo sapiens, UniProt P51532); test: SMARCA4 degradation analysis by imaging in RKO cells (DC50 A4); assay type: cell-based; conditions: tables 69, 70, 73, 76-78
T1 construct: endogenous in cells; host or cells: RKO cells (CRL-2577, ATCC)
Procedure: (§1) Determination of SMARCA2 and SMARCA4 Degradation (DC50 A2 and A4 [nM])
(§2) Protein Degradation Assays for SMARCA2 and SMARCA4
(§3) For degradation analysis by imaging, 1250 RKO cells (CRL-2577, ATCC) per well were seeded into 60 μL DMEM (Sigma Aldrich) supplemented with 10% FBS (Hyclone) in 384-well flat bottom plates (CellCarrier Ultra, Perkin Elmer) and incubated at 37° C. and 5% CO2 in a humidified atmosphere overnight. Compounds were added the next day using an Access Labcyte Workstation with a Labcyte Echo 550 or 555 acoustic dispenser and incubated with the cells for 4 or 24 h. Cells were fixed by adding 25 μL fixation buffer (7.4% formaldehyde (Sigma Aldrich F8775), 0.2% Triton TX100 (Sigma Aldrich F93443) in PBS) for 15 minutes at room temperature. After aspirating the fixing solution, the cells were washed once with 25 μL PBS and 25 μL of Blocking Buffer (10% Goat Serum in PBS) were added to each well and incubated for 30 minutes. Cells were washed with PBS and incubated with 20 μL mouse anti-Smarca4 (BRG1) antibody (Cell Signaling #52251) or rabbit anti-Smarca2 (BRM) antibody (Sigma Aldrich HPA029981) in blocking solution (PBS with 10% FCS) for ca. 2-4 h at RT. For detection of the nuclei, 25 μL of 5 μg/mL Hoechst 33342 (stock 10 mg/mL in H2O; Invitrogen H1399) were added together with Alexa Fluor 647 goat anti-mouse IgG (Invitrogen A-21235) or Alexa Fluor 488 goat anti-rabbit IgG (Invitrogen A-11034) in blocking solution and incubated for 60 min at RT. The cell layer was washed with 25 μL PBS, the wells were filled with 25 μL PBS and the plates sealed with an adhesive sheet. The mean intensity at 488 or 647 nm in the nucleus was measured using an Opera Phenix Plus High-Content Screening System (Perkin Elmer), values were normalized to the background and DMSO control and DC50 values were calculated and analyzed using a four-parametric logistic model.

SMARCA2 = molecular target: T2, SMARCA2 (Homo sapiens, UniProt P51531); test: SMARCA2 degradation analysis by imaging in RKO cells (DC50 A2); assay type: cell-based; conditions: tables 69, 70, 73, 76-78
T2 construct: endogenous in cells; host or cells: RKO cells (CRL-2577, ATCC)
Procedure: as §1, §2, §3

T1 sequence (P51532 whole entry): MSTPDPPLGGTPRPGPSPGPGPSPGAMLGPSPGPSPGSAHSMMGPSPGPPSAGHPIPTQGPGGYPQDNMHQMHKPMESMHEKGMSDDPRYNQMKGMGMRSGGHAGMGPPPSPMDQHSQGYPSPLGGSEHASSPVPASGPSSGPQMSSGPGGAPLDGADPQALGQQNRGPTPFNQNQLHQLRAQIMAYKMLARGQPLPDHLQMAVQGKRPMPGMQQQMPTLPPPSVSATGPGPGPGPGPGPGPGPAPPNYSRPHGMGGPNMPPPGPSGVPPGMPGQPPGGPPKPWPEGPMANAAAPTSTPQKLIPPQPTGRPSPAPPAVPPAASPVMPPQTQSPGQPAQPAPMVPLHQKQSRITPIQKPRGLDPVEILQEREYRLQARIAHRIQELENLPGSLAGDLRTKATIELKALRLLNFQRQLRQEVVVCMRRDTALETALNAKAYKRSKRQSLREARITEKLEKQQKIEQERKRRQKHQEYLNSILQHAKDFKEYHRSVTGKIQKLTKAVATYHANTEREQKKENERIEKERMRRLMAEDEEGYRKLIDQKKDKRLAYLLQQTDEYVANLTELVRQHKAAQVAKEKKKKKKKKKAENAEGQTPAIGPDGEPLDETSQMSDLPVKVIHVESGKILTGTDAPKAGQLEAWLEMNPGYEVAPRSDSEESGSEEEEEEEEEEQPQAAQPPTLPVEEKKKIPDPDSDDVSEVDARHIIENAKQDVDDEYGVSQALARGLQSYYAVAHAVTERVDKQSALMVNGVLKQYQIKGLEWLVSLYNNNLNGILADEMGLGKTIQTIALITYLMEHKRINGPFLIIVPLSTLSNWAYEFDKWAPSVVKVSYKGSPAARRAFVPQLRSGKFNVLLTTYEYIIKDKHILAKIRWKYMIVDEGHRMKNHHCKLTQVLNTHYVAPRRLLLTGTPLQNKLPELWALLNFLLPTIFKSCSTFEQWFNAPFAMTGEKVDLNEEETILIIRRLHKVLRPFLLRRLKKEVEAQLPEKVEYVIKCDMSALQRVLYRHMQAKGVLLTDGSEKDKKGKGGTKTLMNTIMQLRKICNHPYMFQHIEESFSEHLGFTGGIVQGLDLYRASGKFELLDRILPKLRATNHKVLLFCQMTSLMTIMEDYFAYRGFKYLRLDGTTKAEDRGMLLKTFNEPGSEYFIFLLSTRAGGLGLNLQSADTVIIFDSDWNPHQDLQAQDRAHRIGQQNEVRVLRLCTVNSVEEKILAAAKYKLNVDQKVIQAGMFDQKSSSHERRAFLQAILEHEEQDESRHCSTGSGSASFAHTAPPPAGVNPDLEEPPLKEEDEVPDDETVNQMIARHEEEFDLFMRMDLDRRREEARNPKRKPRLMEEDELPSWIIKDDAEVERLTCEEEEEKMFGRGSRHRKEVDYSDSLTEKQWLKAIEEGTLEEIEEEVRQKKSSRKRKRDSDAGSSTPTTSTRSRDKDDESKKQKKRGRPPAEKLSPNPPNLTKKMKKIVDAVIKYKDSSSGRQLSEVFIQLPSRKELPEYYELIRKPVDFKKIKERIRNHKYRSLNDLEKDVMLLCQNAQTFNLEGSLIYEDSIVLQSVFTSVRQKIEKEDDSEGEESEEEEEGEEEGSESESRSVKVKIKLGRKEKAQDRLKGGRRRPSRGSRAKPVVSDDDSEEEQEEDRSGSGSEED
T2 sequence (P51531 whole entry): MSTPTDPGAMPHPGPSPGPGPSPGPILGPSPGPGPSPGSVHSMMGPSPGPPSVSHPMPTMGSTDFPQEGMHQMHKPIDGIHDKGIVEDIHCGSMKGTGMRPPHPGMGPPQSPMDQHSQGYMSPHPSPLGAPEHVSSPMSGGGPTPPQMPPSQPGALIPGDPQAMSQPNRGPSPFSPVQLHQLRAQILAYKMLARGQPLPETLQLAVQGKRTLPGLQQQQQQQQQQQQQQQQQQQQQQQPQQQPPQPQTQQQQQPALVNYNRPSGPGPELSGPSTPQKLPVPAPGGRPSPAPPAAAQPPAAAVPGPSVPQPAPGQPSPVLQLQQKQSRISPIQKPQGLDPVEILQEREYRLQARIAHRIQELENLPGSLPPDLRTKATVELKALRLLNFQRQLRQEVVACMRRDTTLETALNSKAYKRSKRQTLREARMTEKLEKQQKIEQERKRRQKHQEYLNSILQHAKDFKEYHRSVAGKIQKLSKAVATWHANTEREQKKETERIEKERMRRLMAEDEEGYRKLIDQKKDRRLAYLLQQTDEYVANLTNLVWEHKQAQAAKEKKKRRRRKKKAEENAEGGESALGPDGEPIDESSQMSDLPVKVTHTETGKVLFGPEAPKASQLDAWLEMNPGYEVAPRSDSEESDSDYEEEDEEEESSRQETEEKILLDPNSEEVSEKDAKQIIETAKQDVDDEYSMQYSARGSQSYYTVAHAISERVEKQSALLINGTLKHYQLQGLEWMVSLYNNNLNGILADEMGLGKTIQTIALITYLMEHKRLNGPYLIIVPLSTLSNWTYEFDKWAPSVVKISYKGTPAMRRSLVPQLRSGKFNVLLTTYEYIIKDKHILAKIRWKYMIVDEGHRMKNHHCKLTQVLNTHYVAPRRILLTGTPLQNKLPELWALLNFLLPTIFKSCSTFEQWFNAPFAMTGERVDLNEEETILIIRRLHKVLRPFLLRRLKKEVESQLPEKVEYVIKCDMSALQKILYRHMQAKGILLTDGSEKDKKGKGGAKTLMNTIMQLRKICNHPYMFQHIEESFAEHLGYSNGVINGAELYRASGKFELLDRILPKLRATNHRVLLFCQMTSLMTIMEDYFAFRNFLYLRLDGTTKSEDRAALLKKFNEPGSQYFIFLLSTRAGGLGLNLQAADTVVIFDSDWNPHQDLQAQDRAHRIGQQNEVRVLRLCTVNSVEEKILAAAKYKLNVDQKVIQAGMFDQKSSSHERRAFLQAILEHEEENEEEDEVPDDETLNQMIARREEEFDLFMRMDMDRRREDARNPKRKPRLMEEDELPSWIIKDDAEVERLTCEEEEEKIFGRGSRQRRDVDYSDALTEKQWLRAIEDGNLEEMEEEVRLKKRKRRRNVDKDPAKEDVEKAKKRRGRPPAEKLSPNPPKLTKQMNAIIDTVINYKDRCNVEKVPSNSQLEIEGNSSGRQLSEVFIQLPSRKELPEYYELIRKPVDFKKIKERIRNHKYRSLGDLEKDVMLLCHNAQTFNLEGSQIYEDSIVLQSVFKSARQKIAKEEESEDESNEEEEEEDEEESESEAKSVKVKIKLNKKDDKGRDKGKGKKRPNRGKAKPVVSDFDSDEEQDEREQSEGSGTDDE

Row | SMILES | DC50 (SMARCA4) [nM] | DC50 (SMARCA2) [nM]
1 | Cc1ncsc1-c1ccc([C@H](CC[C@H](C)CCN2CCC(c3ccc4c(c3)n(C3CCCC3)c3nc(=O)c5c(Br)cccc5n43)CC2)NC(=O)[C@@H]2C[C@@H](O)CN2C(=O)[C@@H](NC(=O)C2(F)CC2)C(C)(C)C)cc1 [Compound 42a] | 25 | 0.9
2 | Cc1ncsc1-c1ccc([C@H](CCCN2CCC(c3cc4c(cc3OCCCN(C)C)n3c5cccc(Br)c5c(=O)nc3n4C3CCCC3)CC2)NC(=O)[C@@H]2C[C@@H](O)CN2C(=O)[C@@H](NC(=O)C2(F)CC2)C(C)(C)C)cc1 [Compound 42aa] | 20 | 10
3 | Cc1ncsc1-c1ccc([C@H](COCCN2CCC(c3cc4c(cc3OCCN3CCN(C)CC3)n3c5cccc(Br)c5c(=O)nc3n4C3CCCC3)CC2)NC(=O)[C@@H]2C[C@@H](O)CN2C(=O)[C@@H](NC(=O)C2(F)CC2)C(C)(C)C)cc1 [Compound 42ab] | > 200 | 21
4 | Cc1ncsc1-c1ccc([C@H](CO[C@@H](C)CN2CCC(c3ccc4c(c3)n(C3CCCC3)c3nc(=O)c5c(Br)cccc5n43)CC2)NC(=O)[C@@H]2C[C@@H](O)CN2C(=O)[C@@H](NC(=O)C2(F)CC2)C(C)(C)C)cc1 [Compound 42ac] | > 200 | 20
5 | Cc1ncsc1-c1ccc([C@H](CCCN2CCC(c3ccc4c(c3)n(C3COC3)c3nc(=O)c5c(Br)cccc5n43)CC2)NC(=O)[C@@H]2C[C@@H](O)CN2C(=O)[C@@H](NC(=O)C2(F)CC2)C(C)(C)C)cc1 [Compound 42ad] | > 200 | 25
6 | CC(C)(C)[C@H](NC(=O)C1(F)CC1)C(=O)N1C[C@H](O)C[C@H]1C(=O)N[C@@H](CCCN1CCC(c2ccc3c(c2)n(C2CCCC2)c2nc(=O)c4c(Br)cccc4n32)CC1)c1ccc(-c2cncs2)cc1 [Compound 42ae] | 5 | 1
7 | Cc1ncsc1-c1ccc([C@H](COCC(O)CN2CCC(c3ccc4c(c3)n(C3CCCC3)c3nc(=O)c5c(Br)cccc5n43)CC2)NC(=O)[C@@H]2C[C@@H](O)CN2C(=O)[C@@H](NC(=O)C2(F)CC2)C(C)(C)C)cc1 (stereo partly drawn) [Compound 42af] | 25 | 6
8 | CCn1c2cc(C3CCN(CCCCCOC[C@H](NC(=O)[C@@H]4C[C@@H](O)CN4C(=O)[C@@H](NC(=O)C4(N(C)C)CC4)C(C)(C)C)c4ccc(-c5scnc5C)cc4)CC3)c(OCCOCCOC)cc2n2c3cccc(Br)c3c(=O)nc12 [Compound 42ag] | > 200 | 9
9 | Cc1ncsc1-c1ccc([C@H](CCCN2CCC(c3ccc4c(c3)n(C3CCCC3)c3nc(=O)c5c(Br)cccc5n43)CC2)NC(=O)[C@@H]2C[C@@H](O)CN2C(=O)[C@@H](NC(=O)C2(N(C)C)CC2)C(C)(C)C)cc1 [Compound 42ah] | 17 | 2
10 | Cc1ncsc1-c1ccc([C@H](CCCCN2CCC(c3ccc4c(c3)n(C3CCCC3)c3nc(=O)c5c(Br)cccc5n43)CC2)NC(=O)[C@@H]2C[C@@H](O)CN2C(=O)[C@@H](NC(=O)C2(F)CC2)C(C)(C)C)cc1 [Compound 42ai] | 9 | 2
11 | Cc1ncsc1-c1ccc([C@H](COCCN2CCC(c3ccc4c(c3)n(C3CCCC3)c3nc(=O)c5c(Br)cccc5n43)CC2)NC(=O)[C@@H]2C[C@@H](O)CN2C(=O)[C@@H](NC(=O)C2(N(C)C)CC2)C(C)(C)C)cc1 [Compound 42aj] |  | 4
12 | Cc1ncsc1-c1ccc([C@H](COCCCN2CCC(c3ccc4c(c3)n(C3CCCC3)c3nc(=O)c5c(Br)cccc5n43)CC2)NC(=O)[C@@H]2C[C@@H](O)CN2C(=O)[C@@H](NC(=O)C2(F)CC2)C(C)(C)C)cc1 [Compound 42ak] | 11 | 2
13 | Cc1ncsc1-c1ccc([C@H](CCCN2CCC(c3cc4c(cc3OCCOCCO)n3c5cccc(Br)c5c(=O)nc3n4C3CCCC3)CC2)NC(=O)[C@@H]2C[C@@H](O)CN2C(=O)[C@@H](NC(=O)C2(F)CC2)C(C)(C)C)cc1 [Compound 42am] | 25 | 0.9
14 | Cc1ncsc1-c1ccc([C@H](CO[C@H](C)CN2CCC(c3cc4c(cc3OC[C@@H]3CCCO3)n3c5cccc(Br)c5c(=O)nc3n4C3CCCC3)CC2)NC(=O)[C@@H]2C[C@@H](O)CN2C(=O)[C@@H](NC(=O)C2(F)CC2)C23CC4CC(CC(C4)C2)C3)cc1 [Compound 42an] | 7 | 0.6
15 | Cc1ncsc1-c1ccc([C@H](CCCCCN2CCN(c3ccc4c(c3)n(C3CCCC3)c3nc(=O)c5c(Br)cccc5n43)CC2(C)C)NC(=O)[C@@H]2C[C@@H](O)CN2C(=O)[C@@H](NC(=O)C2(F)CC2)C(C)(C)C)cc1 [Compound 42ao] | 17 | 1
16 | Cc1ncsc1-c1ccc([C@H](CCCCCN2CCN(c3ccc4c(c3)n(C3CCCC3)c3nc(=O)c5c(Br)cccc5n43)[C@H](C)C2)NC(=O)[C@@H]2C[C@@H](O)CN2C(=O)[C@@H](NC(=O)C2(F)CC2)C(C)(C)C)cc1 [Compound 42aq] | 9 | 1
17 | Cc1ncsc1-c1ccc([C@H](CCCCCN2CCN(c3ccc4c(c3)n(C3CCCC3)c3nc(=O)c5c(Br)cccc5n43)[C@@H](C)C2)NC(=O)[C@@H]2C[C@@H](O)CN2C(=O)[C@@H](NC(=O)C2(F)CC2)C(C)(C)C)cc1 [Compound 42ar] | 2 | 0.5
18 | Cc1ncsc1-c1ccc([C@@H](CC[C@@H](C)CCN2CCC(c3ccc4c(c3)n(C3CCCC3)c3nc(=O)c5c(Br)cccc5n43)CC2)NC(=O)[C@@H]2C[C@@H](O)CN2C(=O)[C@@H](NC(=O)C2(F)CC2)C(C)(C)C)cc1 [Compound 42as] | > 833 | 82
19 | Cc1ncsc1-c1ccc([C@@H](CC[C@H](C)CCN2CCC(c3ccc4c(c3)n(C3CCCC3)c3nc(=O)c5c(Br)cccc5n43)CC2)NC(=O)[C@@H]2C[C@@H](O)CN2C(=O)[C@@H](NC(=O)C2(F)CC2)C(C)(C)C)cc1 [Compound 42at] | > 833 | 57
20 | Cc1ncsc1-c1ccc([C@H](CCCCCN2C[C@@H]3C[C@H]2CN3c2ccc3c(c2)n(C2CCCC2)c2nc(=O)c4c(Br)cccc4n32)NC(=O)[C@@H]2C[C@@H](O)CN2C(=O)[C@@H](NC(=O)C2(F)CC2)C(C)(C)C)cc1 [Compound 42au] | > 833 | 7
21 | Cc1ncsc1-c1ccc([C@H](COCCN2CCC(c3cc4c(cc3F)n3c5cccc(Br)c5c(=O)nc3n4C3CCCC3)CC2)NC(=O)[C@@H]2C[C@@H](O)CN2C(=O)[C@@H](NC(=O)C2(F)CC2)C(C)(C)C)cc1 [Compound 42av] | 162 | 13
22 | Cc1ncsc1-c1ccc([C@H](CCCCCN2CCC(c3cc4c(cn3)n3c5cccc(Br)c5c(=O)nc3n4C3CCCC3)CC2)NC(=O)[C@@H]2C[C@@H](O)CN2C(=O)[C@@H](NC(=O)C2(F)CC2)C(C)(C)C)cc1 [Compound 42aw] | > 833 | 6
23 | Cc1ncsc1-c1ccc([C@H](CCCCN(C)C2CCC(c3ccc4c(c3)n(C3CCCC3)c3nc(=O)c5c(Br)cccc5n43)CC2)NC(=O)[C@@H]2C[C@@H](O)CN2C(=O)[C@@H](NC(=O)C2(F)CC2)C(C)(C)C)cc1 (stereo partly drawn) [Compound 42ax] | 29 | 7
24 | COc1cc2c(cc1C1CCN(CCOC[C@H](NC(=O)[C@@H]3C[C@@H](O)CN3C(=O)[C@@H](NC(=O)C3(F)CC3)C(C)(C)C)c3ccc(-c4scnc4C)cc3)CC1)n(C1CCCC1)c1nc(=O)c3c(Br)cccc3n21 [Compound 42ay] | 109 | 15
25 | Cc1ncsc1-c1ccc([C@H](COCCN2CCC(c3cc4c(cc3OC3CCOC3)n3c5cccc(Br)c5c(=O)nc3n4C3CCCC3)CC2)NC(=O)[C@@H]2C[C@@H](O)CN2C(=O)[C@@H](NC(=O)C2(F)CC2)C(C)(C)C)cc1 (stereo partly drawn) [Compound 42az] | 800 | 36
26 | Cc1ncsc1-c1ccc([C@H](CC[C@H](C)CCN2CCC(c3ccc4c(c3)n([C@H]3CCOC3)c3nc(=O)c5c(Br)cccc5n43)CC2)NC(=O)[C@@H]2C[C@@H](O)CN2C(=O)[C@@H](NC(=O)C2(F)CC2)C(C)(C)C)cc1 [Compound 42b] | > 833 | 2
27 | CCn1c2cc(C3CCN(CCCCC[C@H](NC(=O)[C@@H]4C[C@@H](O)CN4C(=O)[C@@H](NC(=O)C4(F)CC4)C(C)(C)C)c4ccc(-c5scnc5C)cc4)CC3)ccc2n2c3cccc(Br)c3c(=O)nc12 [Compound 42ba] | 22 | 4
28 | Cc1ncsc1-c1ccc([C@H](COCCN2CCC(c3ccc4c(c3)n(C3CCCC3)c3nc(=O)c5c(Br)cccc5n43)CC2)NC(=O)[C@@H]2C[C@@H](O)CN2C(=O)[C@@H](NC(=O)C2(C)CC2)C(C)(C)C)cc1 [Compound 42bb] | 142 | 17
29 | Cc1ncsc1-c1ccc([C@H](COCCN2CCC(c3ccc4c(c3)n(C3CCCC3)c3nc(=O)c5c(Br)cccc5n43)CC2)NC(=O)[C@@H]2C[C@@H](O)CN2C(=O)[C@@H](NC(=O)C2(C(F)(F)F)CC2)C(C)(C)C)cc1 [Compound 42bc] | 133 | 19
